Results taken from patent US12181409B2, “Cell imaging composition and cellular material imaging method using same” (EWHA UNIVERSITY-INDUSTRY COLLABORATION FOUNDATION, priority 2019, dated 2024).

Tests used:
[1] = target: T1, HSA (Homo sapiens, UniProt P02768); experiment: Fluorescent imaging of HSA protein at various pH values; assay type: biochemical; details: buffer solutions at pH 7.4, pH 7.5 and pH 8.5
Description: After Compound 1 and HSA protein were incubated in buffer solutions at various pH values, fluorescence intensity profiles and fluorescent images depending on pH were compared.

[2] = system: mitochondria in HeLa cells; experiment: Colocalization of Compound 1 with MitoTracker Deep Red, confocal microscopy; assay type: cell-based; details: 10 μM Compound 1 and 50 nM MitoTracker Deep Red, 30 minutes
Description: FIGS. 10A to 10C show fluorescence images of mitochondria in a cell by Compound 1 (excitation at 405 nm/emission at 490 nm to 590 nm) (FIG. 10A), Mitotracker Deep Red (excitation at 635 nm/emission at 655 nm to 755 nm) (FIG. 10B), and Compound 1 and Mitotracker Deep Red merged (FIG. 10C), respectively, acquired by confocal microscopy after HeLa cells were incubated with 10 μM Compound 1 and 50 nM Mitotracker Deep Red for 30 min, according to an example of the present disclosure.
Referring to FIGS. 10A to 10E, HeLa cells were incubated with 10 μM Compound 1 and 50 nM MitoTracker Deep Red for 30 minutes and a fluorescent image of the mitochondria in the cells was obtained by confocal microscopy.

[3] = system: HeLa cells; experiment: Cytotoxicity test (MTT); assay type: cell-based; details: 30 μM Compound 1, 24 hours, MTT 4 hours, untreated sample = 100%
Description: Referring to FIG. 13, HeLa cells were treated with various concentrations of Compound 1 for 24 hours, cultured in a medium containing MTT for 4 hours, and then the viability of the cells depending on the concentration of Compound 1 was checked. When the absorbance of a sample not treated with Compound 1 was set to 100%, it was confirmed that the cells treated with 30 μM Compound 1 survived about 80%.

[4] = target: T1, HSA; experiment: Fluorescent imaging of various proteins; assay type: biochemical; details: 3 μM Compound 1, various proteins in DMSO, 0.5 hours and 1.5 hours
Description: FIGS. 14D(i) to 14D(vi) show fluorescence imaging of proteins measured after incubating 3 μM Compound 1 with various proteins in DMSO for 0.5 hours and 1.5 hours, respectively (λex=410 nm), according to an example of the present disclosure.
After 3 μM Compound 1 and various types of proteins in DMSO were incubated for 0.5 hours and 1.5 hours, fluorescence intensity profiles and fluorescent images depending on the types of proteins were compared.

[5] = system: HeLa cells; experiment: Colocalization of Compound 1 with ER-Tracker Red, confocal microscopy; assay type: cell-based; details: 10 μM Compound 1 and 1 μM ER-Tracker Red, 30 minutes
Description: FIGS. 11A to 11C show fluorescence images of mitochondria in a cell by Compound 1 (excitation at 405 nm/emission at 490 nm to 590 nm) (FIG. 11A), ER(endoplasmic reticulum)-tracker Red (excitation at 559 nm/emission at 576 nm to 675 nm) (FIG. 11B), and Compound 1 and ER-tracker Red merged (FIG. 11C), respectively, acquired by confocal microscopy after HeLa cells were incubated with 10 μM Compound 1 and 1 μM ER-tracker Red for 30 min, according to an example of the present disclosure.
Referring to FIGS. 11A to 11C, HeLa cells were incubated with 10 μM Compound 1 and 1 μM ER-Tracker Red for 30 minutes and a fluorescent image of the mitochondria in the cells was obtained by confocal microscopy.

T1 sequence (P02768 25-609): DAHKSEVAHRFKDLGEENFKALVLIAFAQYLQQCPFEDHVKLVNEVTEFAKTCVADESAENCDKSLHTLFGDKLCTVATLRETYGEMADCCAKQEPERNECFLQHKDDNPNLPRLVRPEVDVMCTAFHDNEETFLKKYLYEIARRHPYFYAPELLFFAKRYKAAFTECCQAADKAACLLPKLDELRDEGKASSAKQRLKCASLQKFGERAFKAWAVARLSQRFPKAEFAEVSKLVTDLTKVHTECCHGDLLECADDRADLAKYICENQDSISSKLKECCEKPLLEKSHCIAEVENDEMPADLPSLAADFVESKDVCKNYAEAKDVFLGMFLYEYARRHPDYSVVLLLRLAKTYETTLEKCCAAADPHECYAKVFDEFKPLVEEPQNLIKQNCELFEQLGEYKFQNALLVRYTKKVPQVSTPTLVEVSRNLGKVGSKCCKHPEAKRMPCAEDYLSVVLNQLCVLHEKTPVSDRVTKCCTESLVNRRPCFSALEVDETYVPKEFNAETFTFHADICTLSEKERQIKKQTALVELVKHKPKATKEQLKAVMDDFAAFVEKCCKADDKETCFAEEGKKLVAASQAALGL

O=C(c1ccccc1)c1ccccc1NCc1ccccc1B(O)O [Compound 1]
fluorescent imaging performance for HSA depending on pH [1]: fluorescent imaging performance specific to HSA protein | Pearson correlation coefficient [2]: 0.81±0.02 | degree of agreement of fluorescent image [2]: about 81% | cell viability (survival) [3]: about 80% | fluorescent imaging performance and selectivity among proteins [4]: fluorescent imaging performance and selectivity specific to HSA | Pearson correlation coefficient [5]: 0.85±0.01 | degree of agreement of fluorescent image [5]: about 85%
